Measurements taken from patent US20040214893A1, “Gabapentin compositions” (priority 2003, published 2004).

Assay: pH of aqueous solution of the crystalline salt
Assay type: physicochemical
Conditions: 14.00 mg crystalline salt in 140 microliters of water
Experimental: Gabapentin (0.55857 g) and ethanedisulfonic acid (0.62940 g) were transferred into a 20 mL scintillation vial. Water (1.5 mL) was added and the mixture was heated to 85 deg. C. to dissolve all of the solids. The solution was filtered through a 0.2 micron filter into a new 20 mL scintillation vial. The vial was capped and placed in the refrigerator (2-4 deg. C.) for 2 hours. The resulting crystals were collected by vacuum filtration (345.83 mg) and analyzed by PXRD. Upon analysis, the crystals were determined to be gabapentin ethanedisulfonic acid salt. A small amount of the crystalline salt (14.00 mg) was weighted into a 3 mL vial and 140 microliters of water was added. The pH of the resulting solution was determined to be 1.2. […] The salt can be characterized by any one, any two, any three, any four, any five, or any six or more of the peaks in FIG. 13 including, but not limited to, 6.0, 11.51, 15.11, 16.17, 17.31, 17.85, 19.73, 20.19, 22.21, 24.63, 26.73, and 28.47 degrees 2-theta.

gabapentin ethanedisulfonic acid salt
pH of the resulting solution: 1.2
